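1) Cells in 96-well plates. 2) Compound, 48 h, 5 concentrations. 3) Linear interpolation between surrounding doses. 4) Unreached endpoint = highest concentration. GI50 is the concentration that inhibits growth by half.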 Active and inactive are the calls of the source. No stated cut-off is given here; in the data, active = GI50 up to about 1.1 µM and inactive = higher.
Legend:
Assay in all cases: growth of human tumour cells (NCI), 48 h
CAKI-1 = test system: CAKI-1
A549 = test system: A549
T47D = test system: T47D
COLO 205 = test system: COLO 205
NCI-H23 = test system: NCI-H23
UACC-62 = test system: UACC-62
SK-MEL-5 = test system: SK-MEL-5
M14 = test system: M14
Malme-3M = test system: Malme-3M
HCC 2998 = test system: HCC 2998
LOX IMVI = test system: LOX IMVI
SW-620 = test system: SW-620
NCI-H522 = test system: NCI-H522
SK-OV-3 = test system: SK-OV-3
SK-MEL-2 = test system: SK-MEL-2
HCT-116 = test system: HCT-116
SNB-75 = test system: SNB-75
U-251 = test system: U-251
HL-60 = test system: HL-60

SMILES	GI50 (CAKI-1)	GI50 (A549)	GI50 (T47D)	GI50 (COLO 205)	GI50 (NCI-H23)	GI50 (UACC-62)	GI50 (SK-MEL-5)	GI50 (M14)	GI50 (Malme-3M)	GI50 (HCC 2998)	GI50 (LOX IMVI)	GI50 (SW-620)	GI50 (NCI-H522)	GI50 (SK-OV-3)	GI50 (SK-MEL-2)	GI50 (HCT-116)	GI50 (SNB-75)	GI50 (U-251)	GI50 (HL-60)
C[As+](C)(c1ccc(Br)c([N+](=O)[O-])c1)c1ccc(Br)c([N+](=O)[O-])c1	> 100 µM (inactive)	> 100 µM (inactive)	> 100 µM (inactive)	> 100 µM (inactive)	> 100 µM (inactive)	> 100 µM (inactive)	9.12 µM (inactive)	> 100 µM (inactive)	18.5 µM (inactive)	> 100 µM (inactive)	> 100 µM (inactive)	> 100 µM (inactive)	87.7 µM (inactive)	> 100 µM (inactive)	> 100 µM (inactive)	> 100 µM (inactive)	> 100 µM (inactive)	> 100 µM (inactive)	
CC1(C)O[C@@H](CO)[C@H]([C@@]23OC[C@H]4OC(C)(C)OC4[C@@H]2OC(C)(C)O3)O1 (stereo partly drawn)		> 100 µM (inactive)	> 100 µM (inactive)	> 100 µM (inactive)	> 100 µM (inactive)		20.3 µM (inactive)	> 100 µM (inactive)	> 100 µM (inactive)	> 100 µM (inactive)	> 100 µM (inactive)	> 100 µM (inactive)	> 100 µM (inactive)	> 100 µM (inactive)	> 100 µM (inactive)	> 100 µM (inactive)	> 100 µM (inactive)	> 100 µM (inactive)	> 100 µM (inactive)
COc1ccccc1Nc1nc(N)nc(N)c1N=O		> 100 µM (inactive)	2.82 µM (inactive)	> 100 µM (inactive)	> 100 µM (inactive)	> 100 µM (inactive)	> 100 µM (inactive)	64 µM (inactive)	> 100 µM (inactive)	> 100 µM (inactive)	> 100 µM (inactive)	> 100 µM (inactive)	> 100 µM (inactive)	> 100 µM (inactive)	> 100 µM (inactive)	> 100 µM (inactive)	> 100 µM (inactive)	> 100 µM (inactive)	> 100 µM (inactive)
c1cnn(C23C4C5C6C4C2C6C53)c1 (stereo not drawn)		> 100 µM (inactive)	> 100 µM (inactive)	> 100 µM (inactive)	> 100 µM (inactive)		> 100 µM (inactive)			> 100 µM (inactive)	> 100 µM (inactive)	> 100 µM (inactive)	> 100 µM (inactive)	> 100 µM (inactive)	> 100 µM (inactive)	> 100 µM (inactive)	> 100 µM (inactive)	> 100 µM (inactive)	> 100 µM (inactive)
CC(=O)NC1C(OC(C)C(=O)NC(C(=O)NC(CCC(=O)NCCCNC2c3ccccc3Nc3cccc([N+](=O)[O-])c32)C(N)=O)C(C)C)C(O)C(CO)OC1(C)OCc1ccccc1 (stereo not drawn)	1.33 µM (inactive)	0.399 µM (active)	1.73 µM (inactive)	0.556 µM (active)	1.61 µM (inactive)	0.577 µM (active)	0.198 µM (active)	1.18 µM (inactive)	1.12 µM (inactive)	0.671 µM (active)	1.47 µM (inactive)	0.291 µM (active)	0.637 µM (active)	1.67 µM (inactive)	1.22 µM (inactive)	0.256 µM (active)	1.91 µM (inactive)	1.39 µM (inactive)	
CCCCCCCCCCCCc1ccc(S(=O)(=O)O)cc1	> 100 µM (inactive)	> 100 µM (inactive)	> 100 µM (inactive)	> 100 µM (inactive)	> 100 µM (inactive)	34.4 µM (inactive)	> 100 µM (inactive)	> 100 µM (inactive)	> 100 µM (inactive)	> 100 µM (inactive)	49.5 µM (inactive)	> 100 µM (inactive)		> 100 µM (inactive)		> 100 µM (inactive)	> 100 µM (inactive)	89.7 µM (inactive)	> 100 µM (inactive)
